Source: patent US20130217702A1 (Richter Gedeon Nyrt., priority 2010, published 2013)
Where two headings read alike, the source gives them in different places.

Columns and labels:
[1] = biological target: T1, recombinant human B1 receptors (Homo sapiens, UniProt P46663); assay: Functional assay: antagonist potency by cytosolic calcium measurement (plate reader fluorimeter) in CHO-B1 cells, agonist LysDABK; type: cell-based
T1 construct: host or cells: CHO (CHO-B1)
T1 sequence (P46663 1-353): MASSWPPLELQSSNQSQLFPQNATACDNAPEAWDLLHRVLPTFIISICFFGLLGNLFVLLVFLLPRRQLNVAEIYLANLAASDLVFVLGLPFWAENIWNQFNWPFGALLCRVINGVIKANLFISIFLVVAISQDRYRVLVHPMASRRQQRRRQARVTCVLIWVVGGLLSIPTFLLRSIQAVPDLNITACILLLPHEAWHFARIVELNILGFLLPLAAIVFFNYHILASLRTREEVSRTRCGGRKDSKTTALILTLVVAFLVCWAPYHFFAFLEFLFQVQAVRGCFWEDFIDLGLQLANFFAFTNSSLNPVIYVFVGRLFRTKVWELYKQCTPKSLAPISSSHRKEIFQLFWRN
Method in brief: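 IC50 is the concentration giving half-maximal inhibition of the LysDABK (EC80) calcium response, fitted from at least three experiments. CHO cells stably expressing human B1 were dye-loaded, exposed to compound for 20-25 min, then read by fluo-4 fluorescence (ΔF/F) at 37 °C.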

[2] = biological target: T2, human recombinant bradykinin B1 receptor (Homo sapiens, UniProt P46663); assay: Human recombinant bradykinin B1 receptor competitive radioligand binding
T2 construct: host or cells: CHO cells, clone hB1-A5
T2 sequence (P46663 1-353): T1 sequence (P46663 1-353)
Method in brief: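 Membranes from CHO cells expressing hB1 (20 μg protein/tube) incubated 15 min at 25° C. with [3,4-prolyl-3,4-^3H(N)]-[Des-Arg^10] Kallidin; nonspecific binding defined with 10 μM Lys-des-Arg^9-Bradykinin. Bound label collected by filtration and counted. IC50 from ≥7-point curves in triplicate; Ki by Cheng-Prusoff.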

[3] = CHO-B1 cells, inhibition of LysDABK (EC80)-evoked [Ca2+]i elevation, read-out: B1 func.
[4] = hB1 expressed in CHO cells, [3H]-[Des-Arg10] Kallidin radioligand, read-out: B1 binding
[5] = reference compounds, functional test, measured by the applicant, read-out: IC50
[6] = reference compounds, binding test, measured by the applicant, read-out: Ki

SMILES | IC50 [1, 3] | Ki [2, 4] | IC50 [1, 5] | Ki [2, 6]
Cc1nc(-c2c(Cl)c3ccccc3n2-c2ccc([C@@H](C)NC(=O)C3(NC(=O)C(F)(F)F)CC3)c(F)c2)no1 [Example 190, 1-(2,2,2-Trifluoro-acetylamino)-cyclopropanecarboxylic acid ((R)-1-{4-[3-chloro-2-(5-methyl-[1,2,4]oxadiazol-3-yl)-indol-1-yl]-2-fluoro-phenyl}-ethyl)-amide] | < 20 nM | < 20 nM |  | 
COc1cc(C(=O)NC2(C(=O)N[C@H](C)c3ccc(-n4c(-c5noc(C)n5)c(Cl)c5ccccc54)cc3F)CC2)on1 [Example 191, 3-Methoxy-isoxazole-5-carboxylic acid [1-((R)-1-{4-[3-chloro-2-(5-methyl-[1,2,4]oxadiazol-3-yl)-indol-1-yl]-2-fluoro-phenyl}-ethylcarbamoyl)-cyclopropyl]amide] | < 20 nM | < 20 nM |  | 
COc1cc(C(=O)NC2(C(=O)NCc3ccc(-n4c(-c5noc(C)n5)c(Cl)c5ccccc54)cc3F)CC2)on1 [Example 192, 3-Methoxy-isoxazole-5-carboxylic acid (1-{4-[3-chloro-2-(5-methyl-[1,2,4]oxadiazol-3-yl)-indol-1-yl]-2-fluoro-benzylcarbamoyl}-cyclopropyl)-amide] | < 20 nM | < 20 nM |  | 
COc1cc(C(=O)NC2(C(=O)NCc3ccc(-n4c(-c5nc(C)no5)c(Cl)c5ccccc54)cc3)CC2)on1 [Example 193, 3-Methoxy-isoxazole-5-carboxylic acid (1-{4-[3-chloro-2-(3-methyl-[1,2,4]oxadiazol-5-yl)-indol-1-yl]-benzylcarbamoyl}-cyclopropyl)-amide] | < 20 nM | < 20 nM |  | 
Cc1noc(-c2c(Cl)c3ccccc3n2-c2ccc(CNC(=O)C3(NC(=O)C(F)(F)F)CC3)cc2)n1 [Example 194, 1-(2,2,2-Trifluoro-acetylamino)-cyclopropanecarboxylic acid 4-[3-chloro-2-(3-methyl-[1,2,4]oxadiazol-5-yl)-indol-1-yl]-benzylamide] | < 20 nM | < 20 nM |  | 
COc1cc(C(=O)NC2(C(=O)NCc3ccc(-n4c(-c5noc(C)n5)cc5ccccc54)cc3)CC2)on1 [Example 195, 3-Methoxy-isoxazole-5-carboxylic acid (1-{4-[2-(5-methyl-[1,2,4]oxadiazol-3-yl)-indol-1-yl]-benzylcarbamoyl}-cyclopropyl)-amide] | < 20 nM | < 20 nM |  | 
COc1cc(C(=O)NC2(C(=O)NCc3ccc(-n4c(-c5nc(C)no5)cc5ccccc54)cc3)CC2)on1 [Example 196, 3-Methoxy-isoxazole-5-carboxylic acid (1-{4-[2-(3-methyl-[1,2,4]oxadiazol-5-yl)-indol-1-yl]-benzylcarbamoyl}-cyclopropyl)-amide] | 20 to 100 nM | < 20 nM |  | 
COc1cc(C(=O)NC2(C(=O)NCc3ccc(-n4c(-c5noc(C)n5)c(Cl)c5cc(F)ccc54)cc3F)CC2)on1 [Example 197, 3-Methoxy-isoxazole-5-carboxylic acid (1-{4-[3-chloro-5-fluoro-2-(5-methyl-[1,2,4]oxadiazol-3-yl)-indol-1-yl]-2-fluoro-benzylcarbamoyl}-cyclopropyl)-amide] | < 20 nM | < 20 nM |  | 
COc1cc(C(=O)NC2(C(=O)NCc3ccc(-n4c(-c5noc(C)n5)c(F)c5cc(F)ccc54)cc3)CC2)on1 [Example 198, 3-Methoxy-isoxazole-5-carboxylic acid (1-{4-[3,5-difluoro-2-(5-methyl-[1,2,4]oxadiazol-3-yl)-indol-1-yl]-benzylcarbamoyl}-cyclopropyl)-amide] | < 20 nM | < 20 nM |  | 
Cc1nc(-c2c(F)c3cc(F)ccc3n2-c2ccc(CNC(=O)C3(NC(=O)C(F)(F)F)CC3)cc2)no1 [Example 199, 1-(2,2,2-Trifluoro-acetylamino)-cyclopropanecarboxylic acid 4-[3,5-difluoro-2-(5-methyl-[1,2,4]oxadiazol-3-yl)-indol-1-yl]-benzylamide] | < 20 nM | < 20 nM |  | 
COc1cc(C(=O)NC2(C(=O)NCc3ccc(-n4c(-c5noc(C)n5)c(C)c5cc(F)ccc54)cc3)CC2)on1 [Example 200, 3-Methoxy-isoxazole-5-carboxylic acid (1-{4-[5-fluoro-3-methyl-2-(5-methyl-[1,2,4]oxadiazol-3-yl)-indol-1-yl]-benzylcarbamoyl}-cyclopropyl)-amide] | < 20 nM | < 20 nM |  | 
COc1cc(C(=O)NC2(C(=O)NCc3ccc(-n4c(-c5noc(=O)n5C)c(Cl)c5ccccc54)cc3)CC2)on1 [Example 201, 3-Methoxy-isoxazole-5-carboxylic acid (1-{4-[3-chloro-2-(4-methyl-5-oxo-4,5-dihydro-[1,2,4]oxadiazol-3-yl)-indol-1-yl]-benzylcarbamoyl}-cyclopropyl)-amide] | < 20 nM | < 20 nM |  | 
CCCN1C(=O)[C@H](NC(=O)Nc2ccc(N3CCC(N4CCCCC4)CC3)cc2)N=C(c2ccc(C)cc2)c2ccccc21 [N-[4-(,4′-bipiperidin)-1′-ylphenyl]-N′-[(3R)-2,3-dihydro-5-(4-methyl-phenyl)-2-oxo-1-propyl-1H-1,4-benzodiazepin-3-yl]-urea, reference compound] |  |  | 64.5 nM | 13.4 nM
CN1CCN(C(=O)C2CCN(S(=O)(=O)c3ccc(NCC(c4ccccc4)c4ccccc4)c(C(=O)N4CCOCC4)c3)CC2)CC1 [NVP-SAA164, 4-{2-[(2,2-diphenyl-ethyl)-amino]-5-{4-[4-[(4-methyl-1-piperazinyl)-carbonyl]-1-piperidinyl]-sulfonyl}-benzoyl}-morpholine, reference compound] |  |  | 33 nM | 8 nM
